How the values were obtained:
Assay in all cases: Microbial challenge testing in BPW
Type in all cases: cell-based
Settings in all cases: BPW, w/v % in label, average of replicates
Pseudomonas aeruginosa = system: Pseudomonas aeruginosa
Outline: (§1)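 Buffered peptone water (pH 7.0) with 1% (w/v) dextrose was spiked with test material (w/v %) and challenged to a final 10^5 to 10^6 cfu/mL at time zero. Substrates were incubated at 35° C.±2° C. for 14 days, then at ambient room temperature. Broth-alone tubes served as controls.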

Aeromonas sp. = system: Aeromonas sp.
Outline: as §1

Burkholderia cepacia = system: Burkholderia cepacia
Outline: as §1

Staphylococcus aureus = system: Staphylococcus aureus
Outline: as §1

Escherichia coli = system: Escherichia coli
Outline: as §1

Proteus vulgaris = system: Proteus vulgaris
Outline: as §1

Bacillus subtilis = system: Bacillus subtilis
Outline: as §1

Aspergillus niger = system: Aspergillus niger
Outline: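 A. niger grown in TSB with 1% dextrose and on SDA at 22° C.±2° C; spores harvested, filtered, adjusted to 1.0×10^8 and checked by hemocytometer.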

O=C([O-])CN(CCN(CC(=O)O)CC(=O)O)CC(=O)[O-].[Na+].[Na+] [EDTA, ethylenediaminetetraacetic acid disodium salt]
Grade code, P. aeruginosa, 3 Days (Pseudomonas aeruginosa; 3 days incubation): 4 (1001 to 10,000 colonies (thus 10,000 cfu/mL to 100,000 cfu/mL)) | Grade code, P. aeruginosa, 13 Days (Pseudomonas aeruginosa; 13 days incubation): 4 (1001 to 10,000 colonies (thus 10,000 cfu/mL to 100,000 cfu/mL)) | Grade code, P. aeruginosa, 30 Days (Pseudomonas aeruginosa; 30 days incubation): 5 (More than 10,000 colonies estimated (thus >100,000 cfu/mL)) | Grade code, Aeromonas sp, 3 Days (Aeromonas sp.; 3 days incubation): 5 (More than 10,000 colonies estimated (thus >100,000 cfu/mL)) | Grade code, Aeromonas sp, 14 Days (Aeromonas sp.; 14 days incubation): 4 (1001 to 10,000 colonies (thus 10,000 cfu/mL to 100,000 cfu/mL)) | Grade code, Aeromonas sp, 30 Days (Aeromonas sp.; 30 days incubation): 4 (1001 to 10,000 colonies (thus 10,000 cfu/mL to 100,000 cfu/mL)) | Grade code, B. cepacia, 3 Days (Burkholderia cepacia; 3 days incubation): 4 (1001 to 10,000 colonies (thus 10,000 cfu/mL to 100,000 cfu/mL)) | Grade code, B. cepacia, 14 Days (Burkholderia cepacia; 14 days incubation): 4 (1001 to 10,000 colonies (thus 10,000 cfu/mL to 100,000 cfu/mL)) | Grade code, B. cepacia, 30 Days (Burkholderia cepacia; 30 days incubation): 4 (1001 to 10,000 colonies (thus 10,000 cfu/mL to 100,000 cfu/mL)) | Grade code, S. aureus, 3 Day (Staphylococcus aureus; 3 days incubation): 5 (More than 10,000 colonies estimated (thus >100,000 cfu/mL)) | Grade code, S. aureus, 14 Day (Staphylococcus aureus; 14 days incubation): 4 (1001 to 10,000 colonies (thus 10,000 cfu/mL to 100,000 cfu/mL)) | Grade code, S. aureus, 30 Day (Staphylococcus aureus; 30 days incubation): 4 (1001 to 10,000 colonies (thus 10,000 cfu/mL to 100,000 cfu/mL)) | Grade code, E. coli, 3 Day (Escherichia coli; 3 days incubation): 5 (More than 10,000 colonies estimated (thus >100,000 cfu/mL)) | Grade code, E. coli, 14 Day (Escherichia coli; 14 days incubation): 5 (More than 10,000 colonies estimated (thus >100,000 cfu/mL)) | Grade code, E. coli, 30 Day (Escherichia coli; 30 days incubation): 5 (More than 10,000 colonies estimated (thus >100,000 cfu/mL)) | Grade code, P. vulgaris, 3 Days (Proteus vulgaris; 3 days incubation): 5 (More than 10,000 colonies estimated (thus >100,000 cfu/mL)) | Grade code, P. vulgaris, 13 Days (Proteus vulgaris; 13 days incubation): 4 (1001 to 10,000 colonies (thus 10,000 cfu/mL to 100,000 cfu/mL)) | Grade code, P. vulgaris, 30 Day (Proteus vulgaris; 30 days incubation): 4 (1001 to 10,000 colonies (thus 10,000 cfu/mL to 100,000 cfu/mL)) | Grade code, B. subtilis, 3 Day (Bacillus subtilis; 3 days incubation): 4 (1001 to 10,000 colonies (thus 10,000 cfu/mL to 100,000 cfu/mL)) | Grade code, B. subtilis, 14 Day (Bacillus subtilis; 14 days incubation): 4 (1001 to 10,000 colonies (thus 10,000 cfu/mL to 100,000 cfu/mL)) | Grade code, B. subtilis, 30 Days (Bacillus subtilis; 30 days incubation): 4 (1001 to 10,000 colonies (thus 10,000 cfu/mL to 100,000 cfu/mL)) | Grade code, A. niger, 3 Day (Aspergillus niger; 3 days incubation): 4 | Grade code, A. niger, 13 Day (Aspergillus niger; 13 days incubation): 4 | Grade code, A. niger, 30 Day (Aspergillus niger; 30 days incubation): 4

Source: patent US20110028566A1, “COMPOSITIONS AND PRODUCTS CONTAINING CYCLOALIPHATIC DIOL ANTIMICROBIAL AGENTS AND METHODS OF USING THE COMPOSITIONS AND PRODUCTS” (EASTMAN CHEMICAL COMPANY, priority 2009, published 2011)
